Converted amounts (≈) assume the structure as drawn. “Also recorded” adds a separate entry of the source. Read-outs that look alike come from different tables or passages of the source.
Tests used:
[1] = system: C. parvum; assay: IFN-γ KO mouse model of Cryptosporidium infection; format: in vivo, mice; details: for Effect of elacridar coadministration on in vivo efficacy: IFN-γ KO mice, once daily for 5 days
Experimental: Efficacy in female IFN-γ KO mice (B6.129S7-Ifngtm1Ts/J; Jackson Laboratories) aged 8–10 weeks was evaluated as previously described. Beginning on day 6 after infection, mice were dosed with 30 mg/kg BKI1318 suspended in 0.2 mL of vehicle, 15 mg/kg elacridar in 0.1 mL of vehicle followed 15 minutes later by 30 mg/kg BKI1318 in 0.1 mL of vehicle, or 0.2 mL of vehicle only once daily for 5 days. Fecal specimens were collected daily from each group and weighed. Each fecal sample was checked for luminescence on the day of collection, and the number of relative light units was determined and normalized to fecal sample weights.

[2] = Caco-2 trans-well apparent permeability assay; format: in vitro ADME; details: human, pH 7.4, Caco-2, 5 µM
Experimental: To initially characterize the permeability of BKIs 1294, 1369, and 1318, the software MedChem Designer (Simulations +, Lancaster, CA) was used to predict the Peff. The in vitro apparent permeability (Papp) was carried out by Absorption Systems LP (Exton, PA) with a Caco-2 trans-well assay. Caco-2 cells (clone C2BBe1) were obtained from American Type Culture Collection (Manassas, VA) were grown to confluence on collagen-coated, microporous membranes in 12-well assay plates. The permeability assay buffer was Hanks’ balanced salt solution (HBSS) containing 10 mM HEPES and 15 mM glucose at a pH of 7.4. The buffer in the receiver chamber also contained 1% bovine serum albumin. The dosing solution concentration was 5 µM BKI in assay buffer, and the cell monolayers were dosed on the apical side (A?B) or basolateral side (B?A) and incubated at 37°C with 5% CO2 in a humidified incubator. After 120 minutes, samples were taken from the donor and receiver chambers in duplicate. The Papp was calculated with equation (1) and the percent recovery with equation (2).
Papp = (dCr/dt) × Vr/(A × CA) (1)
Percent Recovery = 100 × ((Vr × Cr^final) + (Vd × Cd^final))/(Vd × […]) (2)
where dCr/dt is the slope of the cumulative concentration in the receiver compartment versus time in µM s^-1; Vr is the volume of the receiver compartment in cm^3; Vd is the volume of the donor compartment in cm^3; A is the area of the insert (1.13 cm^2 for 12-well); CA is the average of the nominal dosing concentration and the measured 120 minute donor concentration in µM; CN is the nominal concentration of the dosing solution in µM; Cr^final is the cumulative receiver concentration in µM at the end of the incubation period; Cd^final is the concentration of the donor in µM at the end of the incubation period.
To ensure no damage was inflicted to the cell monolayers during the flux period, lucifer yellow flux was also measured post-experimentally for each monolayer. To determine whether BKIs 1294, 1369, and 1318 were substrates of P-gp in vitro, P-gp efflux was characterized using the Caco-2 permeability assay protocol with a few modifications. The dosing solution concentration was 5 μM of BKI in the assay buffer +/- 1 μM valspodar. Cells were first pre-incubated for 30 minutes with HBSS containing +/- 1 μM valspodar. Cell monolayers were dosed on the apical side (A?B) or basolateral side (B?A), and incubated at 37°C with 5% CO2 in a humidified incubator. Samples were taken from the donor and receiver chambers at 120 minutes. Each determination was performed in duplicate.

[3] = In vitro solubility at pH 2 and 6.5; format: physicochemical
Experimental: Figure 1. Structures, in vitro efficacy, and physicochemical properties of bumped kinase inhibitors (BKIs). […] Solubilities for each BKI were measured at pH 2 and 6.5, to represent the stomach and small intestinal environments, respectively. The human effective permeability (Peff) was predicted as described in Materials and Methods.

[4] = system: Cryptosporidium parvum; assay: C. parvum growth inhibition, nonpolarized HCT-8 coculture assay; format: cell-based; details: Cryptosporidium parvum
From the text: Information regarding C. parvum growth inhibition by BKIs, the hollow fiber model, liquid chromatography–tandem mass spectrometry (LC-MS/MS) methods, and the interferon γ (IFN-γ) knockout (KO) mouse model of C. parvum infection has been described in detail previously [[15], [20–23]]. Information on BKI permeability, LC-MS/MS quantification of elacridar, and quantification of Cryptosporidium by polymerase chain reaction analysis is described in the Supplementary Materials. Unless noted otherwise, statistical significance was determined with an unpaired Student t test, using a significance level of 0.05.
To evaluate the potential impact of P-gp efflux on BKI1318 in vitro efficacy, in vitro assays with polarized and nonpolarized HCT-8 cells were evaluated. The nonpolarized HCT-8 coculture assay to screen anti-Cryptosporidium drug candidates has been previously reported by us in detail. […] Based on the reported elacridar half maximal inhibitor concentration for the inhibition of P-gp, the P-gp activity was predicted to be reduced with both elacridar concentrations. […] Elacridar alone had no effect on C. parvum levels.

[5] = pH 2, represents stomach, read-out: Solubility (pH 2)
[6] = HCT-8, in vitro, read-out: C. parvum EC50

Row | efflux ratio at 120 min, 5 µM [2] | Papp A→B at 120 min, 5 µM [2] [×10⁻⁶ cm/s] | Papp B→A at 120 min, 5 µM [2] [×10⁻⁶ cm/s] | solubility [3, 5] [µM] | solubility ([3]; pH 6.5, represents small intestine, read-out: Solubility (pH 6.5)) [µM] | EC50 [4, 6] [nM] | EC50 ([4]; nonpolarized HCT-8 cells, BKI1318 alone, read-out: EC50 (±standard error) against C. parvum) [nM] | SMILES | Reduction in C. parvum oocyst excretion ([1]; 60 mg/kg once daily for 5 days, without elacridar) [log] | Effect of elacridar coadministration on in vivo efficacy [1]
1 | 69 | 0.29 | 20.3 | > 100 | 56 (≈ 22.6 µg/mL) | 3200 | 1600 ± 1500 | CCOc1ccc2cc(-c3nn(CC4CCNCC4)c4ncnc(N)c34)ccc2n1 [BKI1318] | < 1 | increased the level by which BKI1318 reduced the Cryptosporidium burden; also recorded: improvement in efficacy
2 | – | 12.4 | 32.7 | > 100 | – | 2300 | – | CCOc1ccc2cc(-c3nn(CC4CCN(C)CC4)c4ncnc(N)c34)ccc2n1 [BKI1369] | – | no effect; also recorded: did not affect

— PMC6736360, “P-Glycoprotein–Mediated Efflux Reduces the In Vivo Efficacy of a Therapeutic Targeting the Gastrointestinal Parasite Cryptosporidium” (The Journal of Infectious Diseases, 2019)
